Reference: patent US6949542B2, “Dihydro-benzo[b][1,4]diazepin-2-one derivatives” (Hoffman-La Roche Inc., priority 2002, dated 2005)
Like-named read-outs stand apart in the source and are kept apart here.

What was measured:
rat mGlu2 receptor = molecular target: T1, rat mGlu2 receptor (Rattus norvegicus, UniProt P31421); test: [3H]-LY354740 binding on mGlu2 transfected CHO cell membranes
T1 construct: expressed in transfected cells; vector pcD1mGR2

[1] = inhibition of 10 nM [3H]-LY354740 binding, mGlu2 transfected CHO cell membranes, room temperature, 1 hour, read-out: Ki mGlu2

T1 sequence (P31421 19-872): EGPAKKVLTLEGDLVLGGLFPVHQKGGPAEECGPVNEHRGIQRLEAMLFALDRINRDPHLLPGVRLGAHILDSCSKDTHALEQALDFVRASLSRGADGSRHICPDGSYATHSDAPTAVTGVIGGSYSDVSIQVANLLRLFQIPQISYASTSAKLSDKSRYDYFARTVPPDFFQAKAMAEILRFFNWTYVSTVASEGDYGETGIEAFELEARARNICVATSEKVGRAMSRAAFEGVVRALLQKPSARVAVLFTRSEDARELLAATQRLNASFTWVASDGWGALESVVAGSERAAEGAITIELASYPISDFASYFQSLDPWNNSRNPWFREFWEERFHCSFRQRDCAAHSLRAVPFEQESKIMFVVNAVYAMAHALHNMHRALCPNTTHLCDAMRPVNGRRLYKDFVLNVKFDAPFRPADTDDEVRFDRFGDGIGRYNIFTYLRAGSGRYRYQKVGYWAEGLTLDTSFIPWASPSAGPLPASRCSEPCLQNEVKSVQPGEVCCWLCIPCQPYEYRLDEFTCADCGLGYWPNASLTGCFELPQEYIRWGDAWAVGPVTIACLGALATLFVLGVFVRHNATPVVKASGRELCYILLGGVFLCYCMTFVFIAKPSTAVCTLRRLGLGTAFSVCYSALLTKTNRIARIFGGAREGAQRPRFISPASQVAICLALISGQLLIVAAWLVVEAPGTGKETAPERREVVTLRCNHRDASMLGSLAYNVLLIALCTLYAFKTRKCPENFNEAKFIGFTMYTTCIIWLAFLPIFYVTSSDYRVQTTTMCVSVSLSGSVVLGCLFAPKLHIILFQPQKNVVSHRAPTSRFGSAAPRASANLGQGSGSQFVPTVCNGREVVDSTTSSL

| SMILES | Ki (rat mGlu2 receptor; [1]) [nM] | melting point [°C] | Ki (rat mGlu2 receptor) [nM] |
| --- | --- | --- | --- |
| O=C1CC(c2cccc(-c3cccnc3)c2)=Nc2ccc(OCC(F)(F)F)cc2N1 [Example 197, 4-(3-Pyridin-3-yl-phenyl)-8-(2,2,2-trifluoro-ethoxy)-1,3-dihydro-benzo[b][1,4]diazepin-2-one] | 10 | 156 | – |
| N#Cc1cc(-c2cccc(C3=Nc4ccc(C(F)(F)F)cc4NC(=O)C3)c2)ccn1 [Example 198, 4-[3-(4-Oxo-7-trifluoromethyl-4,5-dihydro-3H-benzo[b][1,4]diazepin-2-yl)-phenyl]-pyridine-2-carbonitrile] | 23.7 | 239 to 240 | – |
| COCCOc1cc2c(cc1C(F)(F)F)NC(=O)CC(c1cccc(-c3ccnc(C#N)c3)c1)=N2 [Example 209, 4-{3-[8-(2-Methoxy-ethoxy)-4-oxo-7-trifluoromethyl-4,5-dihydro-3H-benzo[b][1,4]diazepin-2-yl]-phenyl}-pyridine-2-carbonitrile] | 12.8 | 212 to 213 | – |
| Cc1cc(C2CC2)ncc1-c1cccc(C2=Nc3cc(C)c(C(F)(F)F)cc3NC(=O)C2)c1 [Example 246, 4-[3-(6-Cyclopropyl-4-methyl-pyridin-3-yl)-phenyl]-7-methyl-8-trifluoromethyl-1,3-dihydro-benzo[b][1,4]diazepin-2-one] | 16.9 | 195 | – |
| Cc1nccc(-c2cccc(C3=Nc4cc(N(C)C)c(C(F)(F)F)cc4NC(=O)C3)c2)n1 [Example 303, 7-Dimethylamino-4-[3-(2-methyl-pyrimidin-4-yl)-phenyl]-8-trifluoromethyl-1,3-dihydro-benzo[b][1,4]diazepin-2-one] | 45 | 211 to 212 | – |
| Cc1cc(-c2cccc(C3=Nc4cc(C)c(C(F)(F)F)cc4NC(=O)C3)c2)nc(NCCO)n1 [Example 322, 4-{3-[2-(2-Hydroxy-ethylamino)-6-methyl-pyrimidin-4-yl]-phenyl}-7-methyl-8-trifluoromethyl-1,3-dihydro-benzo[b][1,4]diazepin-2-one] | 4 | 228 to 230 | – |
| Cc1cc2c(cc1C(F)(F)F)NC(=O)CC(c1cccc(-c3ccnc(N4CCOCC4)c3)c1)=N2 [Example 387, 7-Methyl-4-[3-(2-morpholin-4-yl-pyridin-4-yl)-phenyl]-8-trifluoromethyl-1,3-dihydro-benzo[b][1,4]diazepin-2-one] | – | 240 to 242 | 14.5 |

Further lines, with some results ahead:

| Ki (rat mGlu2 receptor; [1]) [nM] | melting point [°C] | SMILES | Ki (rat mGlu2 receptor) [nM] |
| --- | --- | --- | --- |
| 8 | 200 to 203 | COCCNc1nc(C)cc(-c2cccc(C3=Nc4cc(N(C)C)c(C(F)(F)F)cc4NC(=O)C3)c2)n1 [Example 326, 7-Dimethylamino-4-{3-[2-(2-methoxy-ethylamino)-6-methyl-pyrimidin-4-yl]-phenyl}-8-trifluoromethyl-1,3-dihydro-benzo[b][1,4]diazepin-2-one] | – |
| 12 | 252 to 256 | Cc1cc(-c2cccc(C3=Nc4cc(C)c(Cl)cc4NC(=O)C3)c2)nc(N2CCOCC2)n1 [Example 327, 8-Chloro-7-methyl-4-[3-(6-methyl-2-morpholin-4-yl-pyrimidin-4-yl)-phenyl]-1,3-dihydro-benzo[b][1,4]diazepin-2-one] | – |
| 6.1 | 226 | O=C1CC(c2cccc(-c3ccc[n+]([O-])c3)c2)=Nc2cc(OCC(F)(F)F)c(C(F)(F)F)cc2N1 [Example 357, 4-[3-(1-Oxy-pyridin-3-yl)-phenyl]-7-(2,2,2-trifluoro-ethoxy)-8-trifluoromethyl-1,3-dihydro-benzo[b][1,4]diazepin-2-one] | – |
| 26.5 | 227 | CCOc1cc2c(cc1C(F)(F)F)NC(=O)CC(c1cccc(-c3cc[n+]([O-])c(C)c3)c1)=N2 [Example 359, 7-Ethoxy-4-[3-(2-methyl-1-oxy-pyridin-4-yl)-phenyl]-8-trifluoromethyl-1,3-dihydro-benzo[b][1,4]diazepin-2-one] | – |
| 16.5 | 225 | Cc1cc(-c2cccc(C3=Nc4cc(Cl)c(Cl)cc4NC(=O)C3)c2)cc(C)[n+]1[O-] [Example 376, 7,8-Dichloro-4-[3-(2,6-dimethyl-1-oxy-pyridin-4-yl)-phenyl]-1,3-dihydro-benzo[b][1,4]diazepin-2-one] | – |
| 7.9 | 165 | O=C1CC(c2cccc(-c3ccnc(N4CCCC4)c3)c2)=Nc2cc(OCC(F)(F)F)c(C(F)(F)F)cc2N1 [Example 391, 4-[3-(2-Pyrrolidin-1-yl-pyridin-4-yl)-phenyl]-7-(2,2,2-trifluoro-ethoxy)-8-trifluoromethyl-1,3-dihydro-benzo[b][1,4]diazepin-2-one] | – |
| 3.25 | 229 | Cc1cc(-c2cccc(C3=Nc4cc(N(C)CC(C)C)c(Cl)cc4NC(=O)C3)c2)cc(C)n1 [Example 410, 8-Chloro-4-[3-(2,6-dimethyl-pyridin-4-yl)-phenyl]-7-(isobutyl-methyl-amino)-1,3-dihydro-benzo[b][1,4]diazepin-2-one] | – |
